This note sets out measurements from patent publication US8716282B2, “Imidazo[1,2-b]pyridazine derivatives and their use as PDE10 inhibitors” (Janssen Pharmaceutica NV, priority 2009, dated 2014).

Molecules are shown by their SMILES.

The target of assay [1] is T1, Rat recombinant PDE10A (rPDE10A2) (Rattus norvegicus, UniProt Q9QYJ6).
T1 construct: inferred from metal chelate purification; made in house; host or cells: Sf9 insect cells, baculovirus
T1 sequence (Q9QYJ6 1-794): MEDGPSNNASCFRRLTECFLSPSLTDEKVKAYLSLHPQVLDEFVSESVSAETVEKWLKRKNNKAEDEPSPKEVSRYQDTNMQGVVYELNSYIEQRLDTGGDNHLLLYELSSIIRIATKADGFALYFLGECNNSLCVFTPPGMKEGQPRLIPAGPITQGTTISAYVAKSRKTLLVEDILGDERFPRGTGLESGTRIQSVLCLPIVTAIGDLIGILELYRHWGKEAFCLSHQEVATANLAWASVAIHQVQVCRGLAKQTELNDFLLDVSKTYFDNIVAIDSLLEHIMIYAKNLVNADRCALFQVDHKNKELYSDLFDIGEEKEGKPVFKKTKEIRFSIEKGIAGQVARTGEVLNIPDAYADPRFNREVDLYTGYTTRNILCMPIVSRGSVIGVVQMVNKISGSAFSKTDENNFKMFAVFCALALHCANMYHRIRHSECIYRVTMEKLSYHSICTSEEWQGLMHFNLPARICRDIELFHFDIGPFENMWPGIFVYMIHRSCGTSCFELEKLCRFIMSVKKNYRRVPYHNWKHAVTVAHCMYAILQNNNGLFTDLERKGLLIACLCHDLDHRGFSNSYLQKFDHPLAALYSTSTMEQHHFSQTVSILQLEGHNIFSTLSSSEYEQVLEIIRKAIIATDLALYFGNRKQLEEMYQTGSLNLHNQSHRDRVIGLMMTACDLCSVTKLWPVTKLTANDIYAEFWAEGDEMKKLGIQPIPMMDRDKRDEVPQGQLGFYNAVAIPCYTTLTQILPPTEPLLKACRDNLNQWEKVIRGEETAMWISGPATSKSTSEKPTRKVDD
Description: In vitro assay PDE10A (SPA, 3H-cAMP). In kind it is biochemical. Conditions: Table 3; −log IC50 expressed in mol/L. Here is the method:
Rat recombinant PDE10A (rPDE10A2) was expressed in Sf9 cells using a recombinant rPDE10A baculovirus construct. Cells were harvested after 48 h of infection and the rPDE10A protein was purified by metal chelate chromatography on Ni-sepharose 6FF. Tested compounds were dissolved and diluted in 100% DMSO to a concentration 100 fold of the final concentration in the assay. […] 10 μl of rPDE10A enzyme in incubation buffer was added and the reaction was started by addition of 10 μl substrate to a final concentration of 60 nM cAMP and 0.008 μCi ^3H-cAMP. The reaction was incubated for 60 minutes at room temperature. […] After sedimentation of the beads during 30 minutes the radioactivity was measured in a Perkin Elmer Topcount scintillation counter and results were expressed as cpm. For blanc values the enzyme was omitted from the reaction and replaced by incubation buffer. Control values were obtained by addition of a final concentration of 1% DMSO instead of compound. The same assay principle is applied for the measurement of the affinity of the compound for other members of the PDE family with appropriate modifications in incubation buffer, substrate concentration, incubation time and stop solution.

Assay [2] has as its system apomorphine-induced stereotypy in rats. The assay can be described thus: Apomorphine-induced stereotypy in rats (APO). In kind it is in vivo, rat. The conditions noted are these: n.d. = found not active at threshold dose 2.5 mg/kg, or 10 mg/kg if (a). Here is the method:
Apomorphine (1.0 mg/kg, i.v.)-induced stereotypy (compulsive sniffing, licking, chewing) was scored every 5 min over the first hour after injection of apomorphine, following a 1 hour interval pre-treatment with the test compound. The score system was: (3) pronounced, (2) moderate, (1) slight, and (0) absent.

`COCCOc1cncc(-c2c(C)nc3c(-c4ccncc4)ccnn23)c1` [Compound 149, 3-[5-(2-methoxyethoxy)-3-pyridinyl]-2-methyl-8-(4-pyridinyl)-imidazo[1,2-b]pyridazine]: in assay [1], the “PDE10A2 pIC50” value is on record as 6.82. Also, the “APO ED50 (mg/kg)” value in assay [2] is “n.d. (n.d. means the compound was found not active at 2.5 or at 10 mg/kg (the latter being indicated as (a)), taken as threshold value, and was not further tested.)”.
